What all share (type): cell-based
One test concerns ER-HER2+ cell line SKBR3. Put plainly: MTT assay for relative cell number, drug combination analysis (CompuSyn CI). The settings on record: Senexin B + lapatinib; three experiments. How it is done: (§1) FIG. 1 presents an analysis of the nature of the interaction between CDK8/19 inhibitor Senexin B (a.k.a. SNX2-1-165) developed and owned by Senex Biotechnology, Inc.) and a HER2-specific monoclonal antibody (a biosimilar of trastuzumab from Biocad, Strelna, Russia) in BT474, a ER+HER2+ breast cancer cell line. In these experiments, 2000 cells/well were plated in each well of 96 well plates. […] Treatment was repeated after 3 days, and the MTT assay for relative cell number was performed after the total of 7 days of treatment. The Combination Index (CI) values were calculated using CompuSyn® (www.combosyn.com), a web tool based on the principles described in Chou (2006). […] Similar analysis was conducted for the interaction between Senexin B and lapatinib (LAP), a small-molecule inhibitor of both HER2 and EGFR, in the same cells; using a SNXB:LAP molar ratio of 10:1.
The same analysis was then conducted using an ER-HER2+ cell line SKBR3 (cells were plated at 1,500 cells per well).
On the technique in general: Tetrazolium assays rely on reduction of a dye to a coloured formazan, in cell work by metabolically active cells.

The subject of test [1] is BT474 (ER+HER2+) breast cancer cell line. Put plainly: Emergence of lapatinib resistance, continuous exposure for 16 weeks, crystal violet staining. Conditions: for inhibition of cell growth after 1 week of treatment: single agent, 2.5 μM Senexin B or 250 nM lapatinib. The source says:
(§2) A major problem for chemotherapy in general and for molecularly targeted drugs in particular is the development of drug resistance. The ability to prevent the development of drug resistance could allow sustained response to targeted drugs and transform the outcome of cancer therapy. Since CDK8 is a key mediator of transcriptional reprogramming (Galbraith et al., 2010, 2013), we hypothesized that CDK8 inhibition may prevent the induction of transcription that may be associated with epigenetic acquisition of drug resistance. To test this hypothesis, we plated BT474 (ER+HER2+) and SKBR3 (ER-HER2+) breast cancer cell lines at 250,000 cells per T25 flask, and the cells were continuously exposed to 2.5 μM Senexin B, 250 nM lapatinib, alone and in combination, for a period of 16 weeks, changing drug-containing media twice a week. At selected time points, cells in flasks were fixed with methanol:acetic acid and stained with crystal violet. The results for BT474 are shown in FIG. 9 and for SKBR3 in FIG. 10. […] However, by week 4 (in the case of BT474) or week 8 (in the case of SKBR3), the outgrowth of cells treated with lapatinib alone became noticeable compared to cells treated with lapatinib+Senexin B combination.

Test [2] relates to SKBR3 (ER-HER2+) breast cancer cell line. Described as above. Conditions: for inhibition of cell growth after 1 week of treatment: single agent, 2.5 μM Senexin B or 250 nM lapatinib.
Excerpt: as §2

Test [3] deals with lapatinib-selected SKBR3-LT cells. Kind of test: Sensitivity of lapatinib-selected cells versus parental SKBR3, 7-day treatment. Conditions: 7 days.
The subject of test [4] is HER2+ colon cancer cell line HT-29. Put plainly: MTT assay for relative cell number, drug combination analysis (CompuSyn CI). The settings on record: for response of cells to drug alone: single agent. How it is done: as §1
(§3) To determine if CDK8/19 inhibition affects the response of HER2+ colon cancer cells to lapatinib, we conducted the same type of analysis as above on two HER2+ colon cancer cell lines, HCT-116 and HT-29 (both plated at 1500 cells per well).

Test [5] deals with HER2+ colon cancer cell line HCT-116. The description is as above. The settings on record: for response of cells to drug alone: single agent. As to the method:
as §1, §3

For test [6], the system named is ER-HER2+ breast cancer cell line JIMT-1. The description is as above. How it is done:
(§4) In these experiments, 2000 cells/well were plated in each well of 96 well plates. […] Treatment was repeated after 3 days, and the MTT assay for relative cell number was performed after the total of 7 days of treatment. The Combination Index (CI) values were calculated using CompuSyn® (www.combosyn.com), a web tool based on the principles described in Chou (2006).
(§5) The same analysis as above was conducted in ER-HER2+ breast cancer cell line HCC-1419 which, despite high levels of HER2, is intrinsically resistant to trastuzumab but sensitive to lapatinib; this pattern of resistance has been associated with activated phosphoinositide 3-kinase/AKT signaling (O'Brien et al., 2010). We also analyzed ER-HER2+ breast cancer cell line JIMT-1, which is intrinsically resistant to both trastuzumab and lapatinib.

Test [7] concerns ER-HER2+ breast cancer cell line HCC-1419. The test is described as above. How it is done: as §4, §5
In test [8] the test system is BT474, a ER+HER2+ breast cancer cell line. Described as above. As to the method:
as §1

Test [9] relates to BT474 breast cancer cells. Put plainly: Emergence of erlotinib resistance, continuous treatment for 35 days. As to the method:
We conducted a similar experiment with BT474 breast cancer cells continuously treated with erlotinib, an inhibitor of EGFR, another member of the same HER family as HER2/Neu. 600,000 cells per T75 flask were plated in the continuous presence of […] erlotinib, […] Senexin B, or a combination of both (changing drug-containing media twice a week). […] The macroscopic and microscopic views of the corresponding samples after 35 days of treatment are shown in FIG. 11 and FIG. 12, respectively.

Where [10] appears, read: combination of 250 nM lapatinib and 2.5 μM Senexin B.
Setting [11] is: combination of Senexin B and lapatinib.
Where [12] appears, read: Senexin B + trastuzumab biosimilar (TRAST).
[13] abbreviates: 250 nM lapatinib alone, compared to lapatinib+Senexin B combination.

Values joined by “and” are separate entries in the source; they are usually repeats but may differ in a detail not shown here. Identical values can stand only once.

For `CN1CCN(C(=O)c2ccc3cc(CCNc4ncnc5ccc(C#N)cc45)ccc3c2)CC1` [Senexin B], the “IC50 CI (Combination Index)” value in the test on ER-HER2+ cell line SKBR3 is 0.611 and 0.674 and 0.470; in test [6] (Senexin B + lapatinib) it was 0.39; in test [6] (setting [12]) it was 0.04; in [8] (Senexin B + lapatinib (LAP), SNXB:LAP molar ratio 10:1, separate experiments), 0.512 and 0.728. The “cell growth after 16 weeks of continuous treatment” value in test [1] (setting [10]) and in [2] (setting [10]) was “did not grow” in each case. Moreover, the “inhibition of cell growth after 1 week of treatment” value in [1] and in test [2] was “limited effect” throughout. The “sensitivity of SKBR3-LT relative to SKBR3” value in test [3] (Senexin B combination with lapatinib, fixed ratio) is recorded as “essentially unchanged”; in test [3] (Senexin B combination with trastuzumab biosimilar, fixed ratio) it was “essentially unchanged”; in test [3] (single agent), “essentially unchanged”. The “CI (Combination Index)” value in test [4] (Senexin B + lapatinib) was 0.314; in [5] (Senexin B + lapatinib), 0.647; in test [7] (Senexin B + lapatinib) it was 0.64; in [7] (setting [12]), 0.45. Moreover, the “response of cells to combination” value in test [4] (setting [11]) and in [5] (setting [11]) was “significant response” throughout. The “response of cells to drug alone” value in test [4] and in [5] was “weak response” each time. The “IC75 CI (Combination Index)” value in [8] (Senexin B (SNXB) + trastuzumab biosimilar (HER), fixed ratio 100 nM SNXB:1 μg/ml HER, 7 days, first experiment) turned out to be 0.019. The “emergence of resistant colonies after 35 days of treatment” value in test [9] (combination of 10 mM erlotinib and 1 mM Senexin B) is reported as “prevented the emergence of resistance”.
On to `C#Cc1cccc(Nc2ncnc3cc(OCCOC)c(OCCOC)cc23)c1` [erlotinib], for which, in test [9] (10 mM erlotinib alone), the “emergence of resistant colonies after 35 days of treatment” value is listed as “erlotinib-resistant colonies emerged” and the “initial effect on cell growth” value is on record as “initially inhibited cell growth”.
On to `CS(=O)(=O)CCNCc1ccc(-c2ccc3ncnc(Nc4ccc(OCc5cccc(F)c5)c(Cl)c4)c3c2)o1` [lapatinib], for which the “cell growth after 16 weeks of continuous treatment” value in test [1] (250 nM lapatinib alone) and in [2] (250 nM lapatinib alone) was “actively proliferating” in each case. Also, the “time by which outgrowth of treated cells became noticeable” value in test [1] (setting [13]) is reported as at most 4 week; in [2] (setting [13]) it was at most 8 week. Moreover, the “inhibition of cell growth after 1 week of treatment” value in test [1] and in [2] was “extremely effective” each time. Besides, the “sensitivity of SKBR3-LT relative to SKBR3” value in test [3] (single agent) is given as “less sensitive”. For the same compound, the entries for the “response of cells to drug alone” value in [4], in [5] and in [6] (single agent) were “weak response”, “weak response” and “resistant”, respectively.
